Laboratory results published in ChEMBL document CHEMBL1136845, “Synthesis, biological activity and tubulin binding poses of 1-deoxy-9-(R)-dihydrotaxane analogs” (Bioorg Med Chem Lett, 2009).
Converted amounts (≈) assume the structure as drawn.

How the values were obtained:
A2780 = assay: Cytotoxicity against human A2780 cells after 72 hrs by MTT assay; assay type: functional, cell-based; settings: A2780, 72 h
A549 = assay: Cytotoxicity against human A549 cells after 72 hrs by MTT assay; assay type: functional, cell-based; settings: A549, 72 h
[1] = Inhibition of GTP-[…] tubulin polymerization

ED50 [1] [µM] | SMILES | IC50 (A2780) [ng/mL] | IC50 (A549) [ng/mL]
0.52 | CC(=O)O[C@H]1C(=O)[C@@]2(C)[C@H]([C@H](OC(=O)c3ccccc3)[C@]3(O)C[C@H](OC(=O)[C@H](O)[C@@H](NC(=O)c4ccccc4)c4ccccc4)C(C)=C1C3(C)C)[C@]1(OC(C)=O)CO[C@@H]1C[C@@H]2O [PACLITAXEL] | 0.13 (≈ 0.152 nM) | 0.29 (≈ 0.34 nM)
5.2 | CC(=O)O[C@@]12CO[C@@H]1C[C@H](O)[C@]1(C)[C@@H]2[C@H](OC(=O)c2ccccc2)[C@@H]2C[C@H](OC(=O)[C@H](O)[C@@H](NC(=O)c3ccccc3)c3ccccc3)C(C)=C([C@H]3OC(C)(C)O[C@@H]31)C2(C)C | 1.54 (≈ 1.84 nM) | 2.87 (≈ 3.42 nM)
1.9 | CC(=O)O[C@@]12CO[C@@H]1C[C@H](O)[C@]1(C)[C@@H]2[C@H](OC(=O)c2ccccc2)[C@@H]2C[C@H](OC(=O)[C@H](O)[C@@H](NC(=O)c3ccccc3)c3ccccc3)C(C)=C([C@@H](O)[C@@H]1O)C2(C)C | 0.11 (≈ 0.138 nM) | 0.18 (≈ 0.226 nM)
